For 4 compounds, PUMA induction and PUMA response results are on record in patent publication US20090011410A1, “METHOD FOR TAILORING ADMINISTRATION OF DRUGS BY QUANTITATION OF MRNA” (priority 2004, published 2009).

This assay has as its system PUMA mRNA. Put plainly: drug-induced PUMA mRNA expression in whole blood of leukemia and lymphoma patients. The settings on record: 2 hours at 37° C. It is filed as cell-based, human.
[1] abbreviates: AML patient, drug concentrations of b94 (FIG. 8B).

For the compound `[NH2][Pt]([NH2])([Cl])[Cl]` [CDDP, cisplatin], under setting [1], the PUMA induction result was “huge induction”. For `COc1cccc2c1C(=O)c1c(O)c3c(c(O)c1C2=O)C[C@@](O)(C(C)=O)C[C@@H]3O[C@H]1C[C@H](N)[C@H](O)[C@H](C)O1` [DNR, daunorubicin], the PUMA induction result (CLL patient, drug concentrations of b94 (FIG. 8A)) is recorded as “induced”. Consider `CN(Cc1cnc2nc(N)nc(N)c2n1)c1ccc(C(=O)N[C@@H](CCC(=O)O)C(=O)O)cc1` [MTX, methotrexate], for which, under setting [1], the PUMA induction entry was “huge induction”. In addition, the PUMA response entry (NHL patient, drug concentrations (FIG. 8C)) is “strong PUMA response”.

As for `Cc1c(N)nc([C@H](CC(N)=O)NC[C@H](N)C(N)=O)nc1C(=O)N[C@H](C(=O)N[C@H](C)[C@@H](O)[C@H](C)C(=O)N[C@H](C(=O)NCCc1nc(-c2nc(C(=O)NCCCN[C@@H](C)c3ccccc3)cs2)cs1)[C@@H](C)O)[C@@H](O[C@@H]1O[C@@H](CO)[C@@H](O)[C@H](O)[C@@H]1O[C@H]1O[C@H](CO)[C@@H](O)[C@H](OC(N)=O)[C@@H]1O)c1c[nH]cn1` [PEP, peplomycin], under setting [1], the PUMA induction result is recorded as “huge induction”.
